Experimental data taken from ChEMBL document CHEMBL1150994, “The chemical synthesis of large random peptide libraries and their use for the discovery of ligands for macromolecular acceptors” (Bioorg Med Chem Lett, 1993).
Activity calls are given as the source filed them. No cut-off for these calls is given here. Where a SMILES comes first, the peptide text is derived from it. [ ]: non-standard residue; d: D form. βAla = NCCC(=O)O

Assays:
[1] = tested on: Monoclonal antibody (mAb) 3E7; assay: Affinity towards anti-beta-endorphin MAb(Clone 3-E7) using [3H][Leu5]-enkephalin as labeled ligand at 10 uM concentration; not active
[2] = tested on: Monoclonal antibody (mAb) 3E7; assay: Affinity towards anti-beta-endorphin MAb(Clone 3-E7) using [3H][Leu5]-enkephalin as labeled ligand
[3] = tested on: Monoclonal antibody (mAb) 3E7; assay: Affinity of compound towards anti-beta-endorphin MAb(Clone 3-E7) using [3H]-[Leu5]-enkephalin as labeled ligand

Compound | Activity [1] | IC50 [2] [nM] | EC50 [3] [nM]
CC(C)C[C@H](NC(=O)[C@H](C)NC(=O)CNC(=O)[C@@H](N)Cc1ccc(O)cc1)C(=O)N[C@@H](CCC(N)=O)C(=O)O (H-YGALQ-OH) | inactive | 1980 | 
CSCC[C@H](NC(=O)[C@@H]1CCCN1C(=O)[C@H](C)NC(=O)CNC(=O)[C@@H](N)Cc1ccc(O)cc1)C(=O)O (H-YGAPM-OH) |  |  | 52
C[C@H](NC(=O)[C@H](Cc1ccccc1)NC(=O)CNC(=O)CNC(=O)[C@@H](N)Cc1ccc(O)cc1)C(=O)O (H-YGGFA-OH) | inactive | 32.9 | 
C[C@@H](O)[C@H](NC(=O)[C@H](Cc1ccccc1)NC(=O)CNC(=O)CNC(=O)[C@@H](N)Cc1ccc(O)cc1)C(=O)O (H-YGGFT-OH) | inactive | 36.9 | 
CC(C)C[C@H](NC(=O)CNC(=O)CNC(=O)[C@@H](N)Cc1ccc(O)cc1)C(=O)N[C@@H](CO)C(=O)O (H-YGGLS-OH) | inactive | 726 | 
CSCC[C@H](NC(=O)CNC(=O)CNC(=O)[C@@H](N)Cc1ccc(O)cc1)C(=O)N[C@H](C(N)=O)C(C)C (H-YGGMV-NH2) |  | 14000 | 
CSCC[C@H](NC(=O)CNC(=O)CNC(=O)[C@@H](N)Cc1ccc(O)cc1)C(=O)N[C@H](C(=O)O)C(C)C (H-YGGMV-OH) | inactive | 8780 | 
CSCC[C@H](NC(=O)CNC(=O)CNC(=O)[C@@H](N)Cc1ccc(O)cc1)C(=O)N[C@H](C(=O)NCCC(N)=O)C(C)C (H-YGGMV[βAla]-NH2) |  | 7160 | 
CSCC[C@H](NC(=O)CNC(=O)CNC(=O)[C@@H](N)Cc1ccc(O)cc1)C(=O)N[C@H](C(=O)NCCC(=O)O)C(C)C (H-YGGMV[βAla]-OH) |  | 5140 | 
CC(C)C[C@H](NC(=O)[C@H](Cc1ccccc1)NC(=O)CNC(=O)CNC(=O)[C@@H](N)Cc1ccc(O)cc1)C(N)=O [[LEU5]ENKEPHALIN] |  | 27.3 | 
